Assay [1] has as its target T1, angiotensin type 2 (AT2) (Oryctolagus cuniculus, UniProt G1T351).
T1 construct: from tissue; host or cells: rabbit uterus
T1 sequence (G1T351 1-363): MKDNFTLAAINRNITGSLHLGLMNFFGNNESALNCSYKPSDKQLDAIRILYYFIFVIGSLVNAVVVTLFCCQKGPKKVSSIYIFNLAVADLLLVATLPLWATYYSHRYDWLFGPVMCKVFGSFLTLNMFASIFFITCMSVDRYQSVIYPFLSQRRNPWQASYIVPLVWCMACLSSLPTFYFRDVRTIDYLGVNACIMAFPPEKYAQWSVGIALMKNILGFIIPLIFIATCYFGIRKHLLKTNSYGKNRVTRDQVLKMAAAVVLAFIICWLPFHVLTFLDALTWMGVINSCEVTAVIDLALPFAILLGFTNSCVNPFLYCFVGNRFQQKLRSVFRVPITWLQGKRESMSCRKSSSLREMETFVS
Description: AT2 binding assay (rabbit uterus binding assay). To be noted: for IC50: rabbit uterus binding assay. From the text: (§1) A typical compound active in a rabbit uterus binding assay for detecting angiotensin type 2 (AT2) antagonists is compound 6 below. AT2 Binding Assay is a modification of the procedure by D. T. Dudley, et al, Mol. Pharmacol. 38:370 (1990) .

Assay [2] concerns angiotensin type 2 (AT2). Description: AT2 binding assay (rabbit uterus binding assay). To be noted: AT2 versus AT1.
Source text: as §1

The next assay concerns AT1. Description: AT1 binding assay. Particulars: at 10^-5 M concentration.
In the next assay the test system is AT-1 receptors. Particulars: cited from earlier work.

This is an account of results in patent US5350757A, “Substituted 1,2,3,4-tetrahydroisoquinolines with angiotensin II receptor antagonist properties” (Warner-Lambert Company, priority 1993, dated 1994).

With `COc1ccc2c(c1OCc1ccccc1)CC(C(=O)O)N(C(=O)C(c1ccccc1)c1ccccc1)C2` (racemic) [Example 20, (RS)-2-(Diphenylacetyl)-1,2,3,4-tetrahydro-6-methoxy-5-(phenylmethoxy)-3-isoquinolinecarboxylic acid], on angiotensin type 2 (AT2) [1], the “binding affinity for the AT2 receptor site, in words” value is “high binding affinity” and the IC50 (in general, the concentration needed to halve the response being measured) worked out at 2.8 nM. Besides, the “selectivity for the AT2 site” value in the assay with angiotensin type 2 (AT2) [2] is recorded as “highly selective for the AT2 site”. Moreover, the “AT1 binding assay activity” value with AT1 is “inactive”.

Compound `COc1cc2c(cc1OCc1ccccc1)CC(C(=O)O)N(C(=O)C(c1ccccc1)c1ccccc1)C2` (racemic) [Example 21, (RS)-2-(Diphenylacetyl)-1,2,3,4-tetrahydro-7-methoxy-6-(phenylmethoxy) -3-isoquinolinecarboxylic acid] displayed a 50% inhibitory concentration (IC50) on angiotensin type 2 (AT2) [1] of 58.5 nM. At angiotensin type 2 (AT2) [1], `COc1ccc2c(c1OCCc1ccccc1)CC(C(=O)O)N(C(=O)C(c1ccccc1)c1ccccc1)C2` (racemic) [Example 22, (RS)-2-(Diphenylacetyl)-1,2,3,4-tetrahydro-6-methoxy-5-(2-phenylethoxy)-3-isoquinolinecarboxylic acid] displayed an IC50 of 8.9 nM. Compound `COc1ccc2c(c1OCc1ccccc1)CC(C(=O)O)N(C(=O)C(c1ccc(Cl)cc1)c1ccc(Cl)cc1)C2` (racemic) [Example 23, (RS)-2-[Bis(4-chlorophenyl)acetyl]-1,2,3,4-tetrahydro-6-methoxy-5-(phenylmethoxy)-3-isoquinolinecarboxylic acid] displayed an IC50 on angiotensin type 2 (AT2) [1] of 24.2 nM. Turning to `COc1ccc2c(c1OCc1ccccc1)CC(C(=O)O)N(C(=O)C(c1ccccc1)C1CCCC1)C2` (racemic) [Example 24, (RS)-2-(Cyclopentylphenylacetyl)-1,2,3,4-tetrahydro-6-methoxy-5-(phenylmethoxy)-3-isoquinolinecarboxylic acid], the IC50 at angiotensin type 2 (AT2) [1] amounted to 1.6 nM.

Turning to `COc1ccc2c(c1OCc1ccccc1)CC(C(=O)O)N(C(=O)Cc1c(Cl)cccc1Cl)C2` (racemic) [Example 25, (RS)-2-[(2,6-Dichlorophenyl)acetyl]-1,2,3,4-tetrahydro-6-methoxy-5-(phenylmethoxy)-3-isoquinolinecarboxylic acid], the IC50 at angiotensin type 2 (AT2) [1] was 117 nM.

As for `COc1ccc2c(c1OCc1ccccc1)CC(C(=O)O)N(C(=O)N(C)c1ccccc1)C2` (racemic) [Example 26], the IC50 on angiotensin type 2 (AT2) [1] is 8.4 nM. On angiotensin type 2 (AT2) [1], `COc1ccc(NC(=O)N2Cc3ccc(OC)c(OCc4ccccc4)c3CC2C(=O)O)cc1` (racemic) [Example 27, (RS)-1,2,3,4-Tetrahydro-6-methoxy-2-[[(4-methoxyphenyl)amino]carbonyl]-5-(phenylmethoxy)-3-isoguinolinecarboxylic acid] came in with an IC50 of 1110 nM. Consider `CCOC(=O)C1Cc2c(ccc(OC)c2OCc2ccccc2)CN1C(=O)C(c1ccccc1)c1ccccc1` (racemic) [Example 30, (RS)-2-(Diphenylacetyl)-1,2,3,4-tetrahydro-6-methoxy-5-phenylmethoxy-3-isoquinolinecarboxylic acid, ethyl ester], for which the IC50 at angiotensin type 2 (AT2) [1] turned out to be 151 nM. At angiotensin type 2 (AT2) [1], `COc1ccc2c(c1OCc1ccc(C(=O)O)cc1)CC(C(=O)O)N(C(=O)C(c1ccccc1)c1ccccc1)C2` (racemic) [Example 33, (RS)-5-(4-Carboxyphenylmethoxy)-2-(diphenylacetyl)-1,2,3,4-tetrahydro-6-methoxy-3-isoquinolinecarboxylic acid] returned an IC50 of 752 nM. Same read-out and setting: under `COc1ccc(COc2c(OC)ccc3c2CC(C(=O)O)N(C(=O)C(c2ccccc2)c2ccccc2)C3)cc1C` (racemic) [Example 35] stands 1.9 nM.

In the case of `CCCCc1nc(Cl)c(CO)n1Cc1ccc(-c2ccccc2-c2nn[nH]n2)cc1` [Dup753], in the assay with AT-1 receptors, the “selective antagonism of AT-1 receptors” value was “selectively antagonized”.
